# Assay results from patent publication US20260285850A1, “SUBSTITUTED OXAZOLIDINONES AND IMIDAZOLINONES AS HERBICIDES” (FMC CORPORATION, priority 2023, published 2026).
# Legend:
# Format in all cases: in vivo
# [1] = system: blackgrass (Alopecurus myosuroides); experiment: Test A postemergence application, visual injury rating 0-100; conditions: Postemergence
# In short: (§1)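 Greenhouse test: loam/sand pots received a surfactant-containing formulation, as a preemergence directed soil spray or a postemergence spray on young plants. Injury was judged visually at day 10 relative to untreated controls.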
# [2] = system: palmer (palmer amaranth, palmer pigweed, Amaranthus palmeri); experiment: as above; conditions: Postemergence
# In short: as §1
# [3] = system: horseweed (Erigeron canadensis); experiment: as above; conditions: Postemergence
# In short: as §1
# [4] = system: wheat (Triticum aestivum); experiment: as above; conditions: Postemergence
# In short: as §1
# [5] = system: kochia (Bassia scoparia); experiment: as above; conditions: Postemergence
# In short: as §1
# [6] = system: galium (catchweed bedstraw, Galium aparine); experiment: as above; conditions: Postemergence
# In short: as §1
# [7] = system: green foxtail (Setaria viridis); experiment: as above; conditions: Postemergence
# In short: as §1
# [8] = system: ryegrass, Italian (italian ryegrass, Lolium multiflorum); experiment: as above; conditions: Postemergence
# In short: as §1
# [9] = system: barnyardgrass (Echinochloa crus-galli); experiment: as above; conditions: Postemergence
# In short: as §1
# [10] = system: soybean (Glycine max); experiment: as above; conditions: Postemergence
# In short: as §1
# [11] = system: ragweed (common ragweed, Ambrosia artemisiifolia); experiment: as above; conditions: Postemergence
# In short: as §1
# [12] = system: corn (Zea mays); experiment: as above; conditions: Postemergence
# In short: as §1
# [13] = system: oat, wild (wild oat, Avena fatua); experiment: as above; conditions: Postemergence
# In short: as §1
# [14] = system: blackgrass (Alopecurus myosuroides); experiment: Test A preemergence soil spray, visual injury rating 0-100; conditions: 0 to 100 scale, 10 days
# In short: as §1
# [15] = system: palmer (palmer amaranth, palmer pigweed, Amaranthus palmeri); experiment: as above; conditions: 0 to 100 scale, 10 days
# In short: as §1
# [16] = system: wheat (Triticum aestivum); experiment: as above; conditions: 0 to 100 scale, 10 days
# In short: as §1
# [17] = system: kochia (Bassia scoparia); experiment: as above; conditions: 0 to 100 scale, 10 days
# In short: as §1
# [18] = system: green foxtail (Setaria viridis); experiment: as above; conditions: 0 to 100 scale, 10 days
# In short: as §1
# [19] = system: ryegrass, Italian (italian ryegrass, Lolium multiflorum); experiment: as above; conditions: 0 to 100 scale, 10 days
# In short: as §1
# [20] = system: barnyardgrass (Echinochloa crus-galli); experiment: as above; conditions: 0 to 100 scale, 10 days
# In short: as §1
# [21] = system: soybean (Glycine max); experiment: as above; conditions: 0 to 100 scale, 10 days
# In short: as §1
# [22] = system: ragweed (common ragweed, Ambrosia artemisiifolia); experiment: as above; conditions: 0 to 100 scale, 10 days
# In short: as §1
# [23] = system: corn (Zea mays); experiment: as above; conditions: 0 to 100 scale, 10 days
# In short: as §1
# [24] = system: oat, wild (wild oat, Avena fatua); experiment: as above; conditions: 0 to 100 scale, 10 days
# In short: as §1
# [25] = system: rice (Oryza sativa); experiment: Test B flooded paddy test, visual plant response rating 0-100; conditions: 250 g ai/ha, Flood, applied to paddy water, evaluated after 13 days
# In short: (§2)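 Plants were grown to the 2-leaf stage, then pots were flooded to 3 cm above the soil and test compounds were applied directly into the paddy water. Water depth was held there throughout; after 13 days in a greenhouse, injury was scored visually against untreated controls.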
# [26] = system: sedge, umbrella (small-flower umbrella sedge, Cyperus difformis); experiment: as above; conditions: 250 g ai/ha, Flood, applied to paddy water, evaluated after 13 days
# In short: as §2
# [27] = system: barnyardgrass (Echinochloa crusgalli); experiment: as above; conditions: 250 g ai/ha, Flood, applied to paddy water, evaluated after 13 days
# In short: as §2
# [28] = system: ducksalad (Heteranthera limosa); experiment: as above; conditions: 250 g ai/ha, Flood, applied to paddy water, evaluated after 13 days
# In short: as §2
# [29] = 8 g ai/ha, 10 days, 0 is no effect, 100 is complete control
# [30] = 31 g ai/ha, greenhouse 10 days, 0 no effect, 100 complete control
smiles,measurement,setting,value
CC1(C(=O)NC2C=CC(C(=O)NS(=O)(=O)C3CC3)C2)CN(c2cc(F)cc(F)c2)C(=O)O1 (stereo not shown) [Compound 87],Blackgrass plant response rating (0 to 100 scale),[1]; [29],0
same,Blackgrass plant response rating (0 to 100 scale),[1]; [30],30
same,"Pigweed, Palmer plant response rating (0 to 100 scale)",[2]; [29],30
same,"Amaranth, Palmer / Pigweed, Palmer plant response rating (0 to 100 scale)",[2]; [30],70
same,Horseweed plant response rating (0 to 100 scale),[3]; [29],20
same,Horseweed plant response rating (0 to 100 scale),[3]; [30],30
same,Wheat plant response rating (0 to 100 scale),[4]; [29],0
same,Wheat plant response rating (0 to 100 scale),[4]; [30],100
same,Kochia plant response rating (0 to 100 scale),[5]; [29],30
same,Kochia plant response rating (0 to 100 scale),[5]; [30],80
same,Galium plant response rating (0 to 100 scale),[6]; [29],50
same,Galium plant response rating (0 to 100 scale),[6]; [30],70
same,"Foxtail, Green plant response rating (0 to 100 scale)",[7]; [29],0
same,"Foxtail, Green plant response rating (0 to 100 scale)",[7]; [30],40
same,"Ryegrass, Italian plant response rating (0 to 100 scale)",[8]; [29],20
same,"Ryegrass, Italian plant response rating (0 to 100 scale)",[8]; [30],50
same,Barnyardgrass plant response rating (0 to 100 scale),[9]; [29],50
same,Barnyardgrass plant response rating (0 to 100 scale),[9]; [30],100
same,Soybean plant response rating (0 to 100 scale),[10]; [29],20
same,Soybean plant response rating (0 to 100 scale),[10]; [30],50
same,Ragweed plant response rating (0 to 100 scale),[11]; [29],10
same,Ragweed plant response rating (0 to 100 scale),[11]; [30],50
same,Corn plant response rating (0 to 100 scale),[12]; [29],0
same,Corn plant response rating (0 to 100 scale),[12]; [30],80
same,"Oat, Wild plant response rating (0 to 100 scale)",[13]; [29],20
same,"Oat, Wild plant response rating (0 to 100 scale)",[13]; [30],90
same,Blackgrass plant response rating,[14]; 8 g ai/ha,10
same,Blackgrass plant response rating,[14]; 31 g ai/ha,20
same,"Pigweed, Palmer plant response rating",[15]; 8 g ai/ha,10
same,"Amaranth, Palmer (Pigweed, Palmer) plant response rating",[15]; 31 g ai/ha,90
same,Wheat plant response rating,[16]; 8 g ai/ha,0
same,Wheat plant response rating,[16]; 31 g ai/ha,20
same,Kochia plant response rating,[17]; 8 g ai/ha,0
same,Kochia plant response rating,[17]; 31 g ai/ha,10
same,"Foxtail, Green plant response rating",[18]; 8 g ai/ha,30
same,"Foxtail, Green plant response rating",[18]; 31 g ai/ha,20
same,"Ryegrass, Italian plant response rating",[19]; 8 g ai/ha,0
same,"Ryegrass, Italian plant response rating",[19]; 31 g ai/ha,30
same,Barnyardgrass plant response rating,[20]; 8 g ai/ha,0
same,Barnyardgrass plant response rating,[20]; 31 g ai/ha,90
same,Soybean plant response rating,[21]; 8 g ai/ha,0
same,Soybean plant response rating,[21]; 31 g ai/ha,0
same,Ragweed plant response rating,[22]; 8 g ai/ha,10
same,Ragweed plant response rating,[22]; 31 g ai/ha,10
same,Corn plant response rating,[23]; 8 g ai/ha,0
same,Corn plant response rating,[23]; 31 g ai/ha,0
same,"Oat, Wild plant response rating",[24]; 8 g ai/ha,0
same,"Oat, Wild plant response rating",[24]; 31 g ai/ha,0
same,"Plant response rating, Rice (0 to 100 scale, 0 is no effect and 100 is complete control)",[25],0
same,"Plant response rating, Sedge, Umbrella (0 to 100 scale, 0 is no effect and 100 is complete control)",[26],0
same,"Plant response rating, Barnyardgrass (0 to 100 scale, 0 is no effect and 100 is complete control)",[27],0
same,"Plant response rating, Ducksalad (0 to 100 scale, 0 is no effect and 100 is complete control)",[28],0
